Values of other authors, collected in patent publication EP2736496B1, “PHARMACEUTICAL COMPOSITION CONTAINING AN ANTIMUSCARINIC AGENT AND METHOD FOR THE PREPARATION THEREOF” (Pharmathen S.A., priority 2011, dated 2013).
Converted amounts (≈) assume the structure as drawn.

water solubility: 12 mg/mL (≈ 36.9 mM)
Compound: Cc1ccc(O)c([C@H](CCN(C(C)C)C(C)C)c2ccccc2)c1 [Tolterodine, (R)-N, N-diisopropyl-3-(2-hydroxy-5-methylphenyl)-3-phenylpropylamine]
